Measured values from ChEMBL document CHEMBL1201862, “PubChem BioAssay data set” (2004).
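All cell lines were grown in 96-well plates and treated with compound for 48 hours. Abbreviation: GI50, concentration required for 50% inhibition of growth.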 Active and inactive are the calls of the source. No stated cut-off is given here; in the data, active = GI50 up to about 1.1 µM and inactive = higher.

How the values were obtained:
Assay in all cases: inhibition of tumour cell growth, NCI panel, 48 h
[1] = test system: IGROV-1
[2] = test system: A498
[3] = test system: OVCAR-4
[4] = test system: SF-539
[5] = test system: T47D
[6] = test system: U-251
[7] = test system: TK-10
[8] = test system: RXF 393
[9] = test system: MOLT-4
[10] = test system: A549
[11] = test system: HCT-15
[12] = test system: NCI-H460
[13] = test system: SF-295
[14] = test system: NCI-H23
[15] = test system: SK-MEL-28
[16] = test system: EKVX
[17] = test system: K562
[18] = test system: SK-MEL-2
[19] = test system: MDA-MB-231
[20] = test system: PC-3

Measured: GI50

C=CCc1[nH]c2c(OCc3ccccc3)cc(N(CC=C)C(C)=O)cc2c1C
inactive: [1] 14.4 µM | [2] 12.5 µM | [3] 8.79 µM | [4] 16.3 µM | [5] 3.79 µM | [6] 12.8 µM | [7] 16.4 µM | [8] 11.2 µM | [9] 5.77 µM | [10] 13.4 µM | [12] 14.8 µM | [13] 13 µM | [14] 13.9 µM | [15] 16.9 µM | [16] 8.45 µM | [17] 10.1 µM | [18] 12.4 µM | [19] 10.7 µM | [20] 6.76 µM
12.9 µM: [11]

O=C(CCSC(CC(=O)c1ccc(Cl)cc1)c1ccc(Cl)cc1)Nc1ccc(Cl)cc1 (stereo not given)
10.8 µM: [11]
inactive: [1] 14.9 µM | [2] 12.4 µM | [3] 14.7 µM | [4] 18.4 µM | [5] 6.03 µM | [6] 9.06 µM | [7] 14.6 µM | [8] 14.9 µM | [9] 3.01 µM | [10] 14.6 µM | [12] 10.2 µM | [13] 9.44 µM | [14] 16.3 µM | [15] 15.4 µM | [16] 12.7 µM | [17] 4.06 µM | [18] 15.5 µM | [19] 15.2 µM | [20] 14.1 µM

COc1ccc2nc(NCN3C(=O)c4ccccc4C3=O)sc2c1
> 100 µM: [11]
inactive: [1] > 100 µM | [2] > 100 µM | [3] > 100 µM | [4] > 100 µM | [5] > 100 µM | [6] > 100 µM | [7] > 100 µM | [8] > 100 µM | [9] > 100 µM | [10] > 100 µM | [12] > 100 µM | [13] > 100 µM | [14] > 100 µM | [15] > 100 µM | [16] > 100 µM | [17] > 100 µM | [18] > 100 µM | [19] > 100 µM | [20] > 100 µM

CCCC(=O)OCC1OC(n2cc(F)c(=O)[nH]c2=O)CC1O (stereo not given)
> 7.53 µM: [11]
inactive: [1] > 8.09 µM | [3] > 10 µM | [5] 6.44 µM | [6] 1.79 µM | [7] 1.26 µM | [8] > 10 µM | [9] > 8.55 µM | [15] > 6.78 µM | [16] > 10 µM | [17] 1.87 µM | [18] > 9.64 µM | [19] > 9.14 µM
active: [2] 0.489 µM | [4] 0.00432 µM | [10] 0.0489 µM | [12] 0.0221 µM | [13] 0.0731 µM | [14] 0.127 µM | [20] 0.746 µM

N#CC1=C(N)OC2=C(CSc3ccccc32)C1c1ccc(Br)cc1 (stereo not given)
4.7 µM: [11]
inactive: [1] 6.97 µM | [2] 13 µM | [3] 5.79 µM | [4] 3.52 µM | [5] 4.04 µM | [6] 4.65 µM | [7] 13.6 µM | [8] 4.04 µM | [9] 2.84 µM | [10] 7.08 µM | [12] 12.1 µM | [13] 12.4 µM | [14] 9.75 µM | [15] 12.9 µM | [16] 2.81 µM | [17] 3.38 µM | [18] 5.7 µM | [19] 11.7 µM | [20] 4.42 µM

COC(=O)c1c(OC(C)=O)ccc2c1c1c(n2C)C(=O)c2ccccc2C1=O
24.8 µM: [11]
inactive: [1] 3.86 µM | [2] 13.5 µM | [3] 28.6 µM | [4] 19.1 µM | [5] 4.81 µM | [6] 31.3 µM | [7] 31 µM | [8] 37.1 µM | [9] 18.3 µM | [10] 20.7 µM | [12] 22.4 µM | [13] 21.5 µM | [14] 19.7 µM | [15] 31.8 µM | [16] 28.8 µM | [17] 66.2 µM | [18] 23.2 µM | [19] 32.8 µM | [20] 27.2 µM
